Test results taken from patent publication US5444055A, “17-hydroxyiminomethyl-5-β, 14 β-androstane derivatives active on the cardiovascular system, processes for their preparation and pharmaceutical compositions containing same” (Sigma-Tau Industrie Farmaceutiche Riunite S.p.A., priority 1992, dated 1995).

Experiments:
Na^+,K^+ -ATPase [1] = molecular target: T1, Na^+,K^+ -ATPase (Homo sapiens, UniProt P05023); test: displacement of specific ^3 H-ouabain binding from purified Na^+,K^+ -ATPase receptor
Na^+,K^+ -ATPase [2] = molecular target: T1, Na^+,K^+ -ATPase; test: inhibition of the activity of purified Na^+,K^+ -ATPase (hydrolysis of ^32 P-ATP); type: biochemical
[3] = literature report; cited from earlier work
Na^+,K^+ -ATPase [4] = conditions: literature report; cited from earlier work
[5] = prevention of development of hypertension, 5-week oral treatment, tail cuff SBP and HR; type: in vivo; conditions: 5 week-treatment, 20 mg/Kg/os daily in Methocel 0.5% w/v, 7 rats (MHS); for SBP: controls 173 +/- 4.5; for HR: controls 382 +/- 8.3
[6] = read-out: Binding ^3 H-Ouab. Displacement -log IC50 (converted)
[7] = purified Na^+,K^+ -ATPase, ^32 P-ATP hydrolysis, read-out: Inhibitory Activity -log IC50 (converted)

SMILES | IC50 (Na^+,K^+ -ATPase [1]; [6]) | IC50 (Na^+,K^+ -ATPase [2]; [7]) | IC50 (Na^+,K^+ -ATPase [2]) | also measured
CN(C)CCO/N=C/[C@H]1CC[C@]2(O)[C@@H]3CC[C@@H]4CC(=NNC(=N)N)CC[C@]4(C)[C@H]3CC[C@]12C (mixture of isomers) [Comp. I-aw, 3-((EZ)-Guanidinoimino)-17β-((E)-2-dimethylaminoethoxyiminomethyl)-5β-androstane-14β-ol] | 79.4 nM | 1260 nM | – | –
CN(C)CCON=C1CC[C@@]2(C)[C@H](CC[C@@H]3[C@@H]2CC[C@]2(C)[C@@H](/C=N/OCCN(C)C)CC[C@]32O)C1 (mixture of isomers) [Comp. I-az] | 126 nM | 2000 nM | – | –
C[C@]12CC[C@H](O)C[C@H]1CC[C@@H]1[C@@H]2CC[C@]2(C)C(=NNC(=N)N)CC[C@]12O [17-guanidinoimino-5β-androstane-3β,14β-diol] | – | – | – | positive inotropic activity [3]: weak positive inotropic agents; inhibition of Na^+,K^+-ATPase (Na^+,K^+ -ATPase [4]): weak inhibitors of Na^+,K^+ -ATPase
C[C@]12CC[C@H](O)C[C@H]1CC[C@@H]1[C@@H]2CC[C@]2(C)[C@@H](C=NNC(=N)N)CC[C@]12O [17β-guanidinoiminomethyl-5β-androstane-3β,14β-diol] | – | – | – | positive inotropic activity [3]: weak positive inotropic agents; inhibition of Na^+,K^+-ATPase (Na^+,K^+ -ATPase [4]): weak inhibitors of Na^+,K^+ -ATPase
C[C@]12CC[C@H](O)C[C@H]1CC[C@@H]1[C@@H]2CC[C@]2(C)[C@@H](C=NO)CC[C@]12O [17β-hydroxyiminomethyl-5β-androstane-3b,14b-diol] | – | – | – | inhibition of Na^+,K^+-ATPase (Na^+,K^+ -ATPase [4]): not to inhibit Na^+,K^+ -ATPase
CO/N=C/[C@H]1CC[C@]2(O)[C@@H]3CC[C@@H]4C[C@@H](O)CC[C@]4(C)[C@H]3CC[C@]12C [Comp. I-aa, (E)-17β-Methoxyiminomethyl-5β-androstane-3β,14β-diol] | 3980 nM | – | 31600 nM | –
C[C@]12CC[C@H](O)C[C@H]1CC[C@@H]1[C@@H]2CC[C@]2(C)[C@@H](/C=N/OCCN)CC[C@]12O [Comp. I-ab, (E)-17β-(2-Aminoethoxyimino)methyl-5β-androstane-3β-diol] | 79.4 nM | 1580 nM | – | –
CN(C)CCO/N=C/[C@H]1CC[C@]2(O)[C@@H]3CC[C@@H]4C[C@@H](O)CC[C@]4(C)[C@H]3CC[C@]12C [Comp. I-ad, (E)-17β-(2-Dimethylaminoethoxyimino)methyl-5β-androstane-3β,14 β-diol] | 39.8 nM | – | 1260 nM | SBP [5]: 148 +/- 4.0 mm Hg; HR [5]: 375 +/- 10.5 beats/min.
CN(C)CCCO/N=C/[C@H]1CC[C@]2(O)[C@@H]3CC[C@@H]4C[C@@H](O)CC[C@]4(C)[C@H]3CC[C@]12C [Comp. I-af, (E)-17β-(3-Dimethylaminopropoxyimino)methyl-5.β-androstane-3β,14β-diol] | 158 nM | – | 2510 nM | –
C[C@]12CC[C@H](O)C[C@H]1CC[C@@H]1[C@@H]2CC[C@]2(C)[C@@H](/C=N/OCCNC(=N)N)CC[C@]12O [Comp. I-ag, (E)-17β-(2-Guanidinoethoxyimino)methyl-5β-androstane-3β,14β-diol] | 158 nM | – | 3160 nM | –
C/C(=N\OCCN(C)C)[C@H]1CC[C@]2(O)[C@@H]3CC[C@@H]4C[C@@H](O)CC[C@]4(C)[C@H]3CC[C@]12C [Comp. I-ai, (E)-20-(2-Dimethylaminoethoxyimino)-5β-pregnane-3β,14β-diol] | 79.4 nM | 2000 nM | – | –
CN(C)CCO/N=C/[C@@]1(O)CC[C@]2(O)[C@@H]3CC[C@@H]4C[C@@H](O)CC[C@]4(C)[C@H]3CC[C@]12C [Comp. I-ak, (E)-17β-(2-Dimethylaminoethoxyimino)methyl-5β-androstane-3β,14β,17α-triol] | 1000 nM | 39800 nM | – | –
CO/N=C/[C@H]1CC[C@]2(O)[C@@H]3CC[C@@H]4C[C@@H](OCCCN)CC[C@]4(C)[C@H]3CC[C@]12C [Comp. I-aq, (E)-3β-(3-Aminopropoxy)-17β-methoxyiminomethyl-5β-androstane-14β-ol] | 631 nM | – | 15800 nM | –
CO/N=C/[C@H]1CC[C@]2(O)[C@@H]3CC[C@@H]4C[C@@H](OCCN5CCCC5)CC[C@]4(C)[C@H]3CC[C@]12C [Comp. I-ar] | 794 nM | 15800 nM | – | SBP [5]: 158 +/- 4.0 mm Hg; HR [5]: 385 +/- 6.4 beats/min.
CN(C)CCO/N=C/[C@H]1CC[C@]2(O)[C@@H]3CC[C@@H]4C[C@@H](OCCCN)CC[C@]4(C)[C@H]3CC[C@]12C [Comp. I-as, (E)-3β-(3-Aminopropoxy)-17β-(2-dimethylaminoethoxyimino)methyl-5β-androstane-14β-ol] | 39.8 nM | 316 nM | – | SBP [5]: 149 +/- 7.9 mm Hg; HR [5]: 377 +/- 9.5 beats/min.
CN(C)CCO/N=C/[C@H]1CC[C@]2(O)[C@@H]3CC[C@@H]4C[C@@H](OCCN5CCCC5)CC[C@]4(C)[C@H]3CC[C@]12C [Comp. I-au, (E)-3β-(2-(1-Pyrrolidinyl)ethoxy)-17β-(2-dimethylaminoethoxyimino)methyl-5β-androstane-3β,14β-diol] | – | 398 nM | – | IC50 (Na^+,K^+ -ATPase [1]): 50.1 nM
